Results taken from patent US20250154154A1 (Relay Binney Street, 2nd Floor, priority 2020, published 2025).

Experiments:
RBE cells = test: Cell Viability Protocol (CellTiterGlo), RBE cells; format: cell-based; settings: RBE or SNU-1079 cells, 72 or 120 hour, cell line and time not given
Method: RBE or SNU-1079 cells were cultured in T-75 or T-175 flasks at 37° C., 5% CO2, 95% relative humidity in RPMI 1640 medium with 10% FBS and 1% Penicillin/Streptomycin (media) and detached with 0.25% trypsin/EDTA at 80-90% confluency. Cells were then seeded in 40 μL media per well in 384-well flat-bottom polystyrene microplates (Corning Cat. No. 3570) at a seeding density of 1200 cells/well and incubated for 24 hours at 37° C. with 5% CO2, 95% relative humidity. On the next day, test compounds were prepared in 10 mM DMSO stock solution and diluted to the indicated concentrations in a 384-well compound source plate. DMSO was employed as a vehicle control. Compounds (40 nL) were transferred to 384-well cell culture plate(s) using the liquid handler Echo550. Plates were incubated at 37° C. with 5% CO2 for 72 hour or 120 hour (as indicated). CellTiterGlo reagent was warmed to 37° C. and added into each well (40 μL per well). Plates were incubated at room temperature for 30 min followed by reading on the EnSpire or EnVision plate reader. Relative viability (% remaining activity) was calculated relative to DMSO control and IC50 values were obtained from dose-response data fitted to a 4-parameter curve.

[1] = tested on: phospho-S6RP (Ser 235/236) in RBE cells; test: Cellular Proliferation Protocol (cellular phospho-S6RP HTRF), RBE cells; format: cell-based; settings: 6 hours treatment, RBE or SNU-1079 cells, cell line not given
Method: Cellular Proliferation Protocol
Cellular phospho-S6RP (Ser 235/236) was measured using a Fluorescence Resonance Energy Transfer (FRET) sandwich assay format (Cisbio HTRF Cat. No. 64RP6PEG). This format uses 2 different, labelled antibodies (Eu^3+-Cryptate donor and d2 acceptor) that positively modulate a specific signal in proportion to phospho-S6RP (Ser 235/236) directly in cells. RBE or SNU-1079 cells were cultivated in T-75 flasks at 37° C., 5% CO2, 95% relative humidity in RPMI 1640 medium with 10% FBS and 1% Penicillin/Streptomycin and detached with trypsin/EDTA at 80-90% confluency. Cells were then seeded in 40 μL volume per well in 384-well flat-bottom polystyrene microplates (Corning Cat. No. 3570) at a seeding density of 2000 cells/well for RBE and 3000 cells/well for SNU-1079 followed by 24 hour incubation at 37° C., 5% CO2, 95% relative humidity. On the next day, compounds were diluted to […] the indicated concentrations and 40 nL of these treatment compounds, along with DMSO vehicle control, were added to the cells (final concentration of compounds is then the indicated concentrations). Treatment was carried out for 6 hours at 37° C., 5% CO2, 95% relative humidity after which the plates were cooled to room temperature before aspirating the medium. Cells were then lysed on a shaker for 45 minutes at room temperature with 20 μL of 1× supplemented lysis buffer per well. After lysis, 5 μL of pre-mixed antibodies was added per well. Plates were covered with black sealing film and incubated overnight at room temperature on a shaker before being read on a PerkinElmer EnVision microplate reader. Percent activation was calculated relative to DMSO control and IC50 values were obtained from dose-response data fitted to a 4-parameter curve.

SRC = SRC (Homo sapiens, UniProt P12931); test: SRC Biochemical Assay Protocol (microfluidic mobility shift assay, FLPeptide4 substrate)
Chain of SRC (P12931 whole entry, species assumed): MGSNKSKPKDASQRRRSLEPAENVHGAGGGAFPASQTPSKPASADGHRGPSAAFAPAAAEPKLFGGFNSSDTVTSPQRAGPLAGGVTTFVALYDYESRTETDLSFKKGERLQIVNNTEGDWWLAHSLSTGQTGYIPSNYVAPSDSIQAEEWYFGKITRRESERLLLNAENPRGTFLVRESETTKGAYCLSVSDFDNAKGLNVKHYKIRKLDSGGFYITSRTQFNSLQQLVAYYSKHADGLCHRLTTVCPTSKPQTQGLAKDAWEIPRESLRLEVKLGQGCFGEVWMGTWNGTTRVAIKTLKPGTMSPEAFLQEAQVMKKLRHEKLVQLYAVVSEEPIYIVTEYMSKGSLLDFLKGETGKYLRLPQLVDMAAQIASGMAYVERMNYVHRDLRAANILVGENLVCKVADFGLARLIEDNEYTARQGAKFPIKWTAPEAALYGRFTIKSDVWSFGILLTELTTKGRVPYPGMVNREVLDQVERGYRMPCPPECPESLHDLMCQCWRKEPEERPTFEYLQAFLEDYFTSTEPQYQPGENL
Summary of the method: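 Recombinant SRC (0.26 nM) preincubated 30 min at RT with compound (0.0017–100 μM) and 1.5 μM FLPeptide4, then 50 μM ATP added; 90 min reaction in HEPES pH 7.4, 10 mM MgCl2, 1% DMSO, EDTA-quenched. Phosphopeptide quantified by microfluidic mobility shift; IC50 from 4-parameter logistic fit.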

SMILES | IC50 (RBE cells) | IC50 ([1]; 6 h) | IC50 (SRC) | IC50 [1]
C=CC(=O)N1CCN(C2CC(C#Cc3c(-c4ccc(Oc5ccccc5)cc4)c4c(N)ncnc4n3C)C2)CC1 (stereo not drawn) [II-167, 1-(4-(3-((4-amino-7-methyl-5-(4-phenoxyphenyl)-7H-pyrrolo[2,3-d]pyrimidin-6-yl)ethynyl)cyclobutyl)piperazin-1-yl)prop-2-en-1-one] | ≤ 10 nM | 10 to 1000 nM | 10 to 1000 nM | –
C=CC(=O)N1CCC(N2CC(C#Cc3c(-c4ccc(Cl)c(OC)c4)c4c(N)ncnc4n3C)C2)C[C@H]1CO (stereo partly drawn) [II-256] | 10 to 1000 nM | 10 to 1000 nM | 10 to 1000 nM | –
C=CC(=O)N1CCC(N2CC(C#Cc3c(-c4ccc(Oc5ccccc5)c(OC(F)F)c4)c4c(N)ncnc4n3C)C2)CC1 [II-35, 1-(4-(3-((4-amino-5-(3-(difluoromethoxy)-4-phenoxyphenyl)-7-methyl-7H-pyrrolo[2,3-d]pyrimidin-6-yl)ethynyl)azetidin-1-yl)piperidin-1-yl)prop-2-en-1-one] | 10 to 1000 nM | 10 to 1000 nM | 10 to 1000 nM | –
C=CC(=O)N[C@@H](CO)C(=O)N1C[C@@H]2[C@@H](C#Cc3c(-c4ccc(Oc5ccccc5)cc4)c4c(N)ncnc4n3C)[C@@H]2C1 [II-210, N-[(2S)-1-[(1R,5S,6S)-6-[2-[4-amino-7-methyl-5-(4-phenoxyphenyl)-7H-pyrrolo[2,3-d]pyrimidin-6-yl]ethynyl]-3-azabicyclo[3.1.0]hexan-3-yl]-3-hydroxy-1-oxopropan-2-yl]prop-2-enamide] | ≤ 10 nM | ≤ 10 nM | ≤ 10 nM | –
C=CC(=O)N1CC[C@@H](N2CC(C#Cc3c(-c4cc(OC)c(Cl)c(OC)c4)c4c(N)ncnc4n3C)C2)[C@@H](O)C1 [II-60] | 10 to 1000 nM | – | 10 to 1000 nM | 10 to 1000 nM
C=CC(=O)N1C[C@@H]2[C@@H](C#Cc3c(-c4ccc(F)c5c4OCO5)c4c(N)ncnc4n3C(C)C)[C@@H]2C1 [II-131] | ≤ 10 nM | – | ≤ 10 nM | ≤ 10 nM
C=CC(=O)N1CCC(N2CC(C#Cc3c(-c4ccc(Cl)c(C)c4)c4c(N)ncnc4n3C)C2)CC1 [II-94] | 10 to 1000 nM | – | 10 to 1000 nM | 10 to 1000 nM
C=CC(=O)N1CCC(N2CC(C#Cc3c(-c4ccc(Oc5ccccc5)c(OC)n4)c4c(N)ncnc4n3C)C2)CC1 [II-315] | ≤ 10 nM | – | 10 to 1000 nM | 10 to 1000 nM
C=CC(=O)N1C[C@@H]2[C@@H](C#Cc3c(-c4ccc(Cl)c(OC)c4)c4c(N)ncnc4n3C(C)C)[C@@H]2C1 [II-271] | ≤ 10 nM | ≤ 10 nM | ≤ 10 nM | –
C=CC(=O)N1CC[C@@H](N2CC(C#Cc3c(-c4ccc(Cl)cc4)c4c(N)ncnc4n3CCOC)C2)[C@@H](O)C1 [II-54] | 10 to 1000 nM | – | 10 to 1000 nM | 10 to 1000 nM
C=CC(=O)N1C[C@@H]2[C@@H](C#Cc3c(-c4ccc(Oc5ccccc5)cc4)c4c(N)ncnc4n3CCOC)[C@@H]2C1 [II-229, 1-((1R,5S,6s)-6-((4-amino-7-(2-methoxyethyl)-5-(4-phenoxyphenyl)-7H-pyrrolo[2,3-d]pyrimidin-6-yl)ethynyl)-3-azabicyclo[3.1.0]hexan-3-yl)prop-2-en-1-one] | ≤ 10 nM | ≤ 10 nM | ≤ 10 nM | –
C=CC(=O)N1CCC(N2CC(F)(C#Cc3c(-c4ccc(Oc5cccc(C)n5)c(OC)c4)c4c(N)ncnc4n3C)C2)CC1 [II-243] | 10 to 1000 nM | 10 to 1000 nM | 10 to 1000 nM | –
C=CC(=O)N1CCC(N2CC(C#Cc3c(-c4ccc5c(c4)OCCO5)c4c(N)ncnc4n3C)C2)CC1 [II-104] | 10 to 1000 nM | – | 10 to 1000 nM | 10 to 1000 nM
C=CC(=O)N1CC[C@@H](N2CC(C#Cc3c(-c4ccc(Oc5ccccc5)cc4)c4c(N)ncnc4n3C)C2)[C@@H](F)C1 [II-171, 1-((3S,4R)-4-(3-((4-amino-7-methyl-5-(4-phenoxyphenyl)-7H-pyrrolo[2,3-d]pyrimidin-6-yl)ethynyl)azetidin-1-yl)-3-fluoropiperidin-1-yl)prop-2-en-1-one] | ≤ 10 nM | ≤ 10 nM | 10 to 1000 nM | –
C=CC(=O)N1CC[C@@H](N2CC(C#Cc3c(-c4cccc5c4cnn5C)c4c(N)ncnc4n3C)C2)[C@@H](O)C1 [II-63, 1-((3S,4R)-4-(3-((4-amino-7-methyl-5-(1-methyl-1H-indazol-4-yl)-7H-pyrrolo[2,3-d]pyrimidin-6-yl)ethynyl)azetidin-1-yl)-3-hydroxypiperidin-1-yl)prop-2-en-1-one] | 1000 to 10000 nM | 1000 to 10000 nM | 1000 to 10000 nM | –
C=CC(=O)N1CCC(C#Cc2c(-c3ccc(Oc4ccccc4)cc3)c3c(N)ncnc3n2C(C)C)C1 (stereo not drawn) [Example I-5] | ≤ 10 nM | ≤ 10 nM | ≤ 10 nM | –
C=CC(=O)N1CCC(N2CC(C#Cc3c(-c4ccc(Oc5ccccc5)cc4)c4c(N)ncnc4n3C(C)C)C2)CC1 [Example I-44] | ≤ 10 nM | ≤ 10 nM | ≤ 10 nM | –
C=CC(=O)N1CCC(N2CC(C#Cc3c(-c4cccc5c4OCO5)c4c(N)ncnc4n3C(C)C)C2)C(O)C1 (stereo not drawn) [II-108] | ≤ 10 nM | – | ≤ 10 nM | ≤ 10 nM
CN(C)C/C=C/C(=O)N1CC(C#Cc2c(-c3ccc(Oc4ccccc4)cc3)c3c(N)ncnc3n2CCO)C1 [II-194, (E)-1-(3-((4-amino-7-(2-hydroxyethyl)-5-(4-phenoxyphenyl)-7H-pyrrolo[2,3-d]pyrimidin-6-yl)ethynyl)azetidin-1-yl)-4-(dimethylamino) but-2-en-1-one] | 10 to 1000 nM | 10 to 1000 nM | 10 to 1000 nM | –
C=CC(=O)N1CC[C@@H](N2CC(C#Cc3c(-c4ccc(Cl)c(OC)c4)c4c(N)ncnc4n3CCOC)C2)[C@@H](O)C1 [II-56] | 10 to 1000 nM | – | 10 to 1000 nM | 10 to 1000 nM
C=CC(=O)N1CC[C@@H](N2CC(C#Cc3c(-c4ccc(Cl)c(CF)c4)c4c(N)ncnc4n3C)C2)[C@@H](O)C1 [II-58] | 10 to 1000 nM | – | 10 to 1000 nM | 10 to 1000 nM
Cc1ccnc(Oc2ccc(-c3c(C#C[C@@H]4[C@H]5CN(C(=O)/C=C/CN6CCC(F)C6)C[C@@H]45)n(C)c4ncnc(N)c34)cc2)c1 (stereo partly drawn) [II-240, (E)-1-((1R,5S,6s)-6-((4-amino-7-methyl-5-(4-((4-methylpyridin-2-yl)oxy)phenyl)-7H-pyrrolo[2,3-d]pyrimidin-6-yl)ethynyl)-3-azabicyclo[3.1.0]hexan-3-yl)-4-(3-fluoropyrrolidin-1-yl)but-2-en-1-one] | 10 to 1000 nM | – | 10 to 1000 nM | 10 to 1000 nM
C=CC(=O)N1CC[C@@H](N2CC(C#Cc3c(-c4ccc(Oc5nccs5)cc4)c4c(N)ncnc4n3C)C2)[C@@H](O)C1 [II-21] | 10 to 1000 nM | – | 10 to 1000 nM | 10 to 1000 nM
C=CC(=O)N[C@H](C)C(=O)N1CCC(C#Cc2c(-c3ccc(Oc4ccccc4)cc3)c3c(N)ncnc3n2[C@H]2CCOC2)CC1 [II-185, N-((R)-1-(4-((4-amino-5-(4-phenoxyphenyl)-7-((S)-tetrahydrofuran-3-yl)-7H-pyrrolo[2,3-d]pyrimidin-6-yl)ethynyl)piperidin-1-yl)-1-oxopropan-2-yl)acrylamide] | 1000 to 10000 nM | 1000 to 10000 nM | 10 to 1000 nM | –
C=CC(=O)N1CCC(N2CC(C#Cc3c(-c4ccc(Cl)cc4)c4c(N)ncnc4n3CCOC)C2)CC1 [II-85] | 10 to 1000 nM | – | 10 to 1000 nM | 10 to 1000 nM
C=CC(=O)N1CCC(N2CC(F)(C#Cc3c(-c4ccc(Oc5ccccc5)c(OC)n4)c4c(N)ncnc4n3C)C2)CC1 [II-317] | ≤ 10 nM | – | 10 to 1000 nM | 10 to 1000 nM
C=CC(=O)N1CCC(N2CC(C#Cc3c(-c4cccc5c4OCO5)c4c(N)ncnc4n3C)C2)CC1 [II-37] | 10 to 1000 nM | – | 10 to 1000 nM | 10 to 1000 nM
